The values that follow come from patent US7914830B2, “Composition for inhibiting thrombosis” (Taiyo Kagaku Co., Ltd, priority 2003, dated 2011).

Test [1] concerns platelet poor plasma (PPP) separated from human blood. In words: APTT anti-coagulant activity of carrageenan antithrombotic agents (Test Example G-1). The format is biochemical. The following applies: for Anti-Coagulant Activity: relative to water control. On the procedure: The anti-coagulant activity of the antithrombotic agent of the present invention was assayed with a coagulometer (manufactured by SYSMEX CORPORATION) utilizing platelet poor plasma (PPP) separated from human blood.
Ten microliters of a sample, 25 microliters of an APTT reagent (manufactured by INTERNATIONAL REAGENTS CORPORATION), and 25 microliters of 10% cephalin were placed into a reaction cuvette to react the components at 37° C. for 3 minutes, and 50 microliters of PPP was placed in the reaction cuvette to react the components for 2 minutes. Finally, 50 microliters of 25 millimolar calcium chloride was added to coagulate the mixture obtained. The time period (second) by which plasma was coagulated was measured, and defined as APTT.
Here, water was used as the control, and the APTT was measured in the same manner. The anti-coagulant activity (%) was calculated from the measured APTT of the sample, relative to that of the control according to the following numerical formula. Anti-Coagulant Activity(%)=((APTT of Sample−APTT of Control)/APTT of Control)×100 […]

The test system is the same in test [2]. Kind of test: APTT and heparin-like activity, hibiscus anti-blood coagulant compositions (Test Examples C-1 to C-3). The format is biochemical. On the procedure: Ten microliters of heparin adjusted to a concentration of 0.05, 0.1, 0.2 or 0.4 U/mL and 40 μL of platelet poor plasma (PPP) separated from human blood were placed in a reaction cuvette, and the components were reacted at 37° C. for 1 minute. Thereafter, 50 μL of an APTT reagent (manufactured by INTERNATIONAL REAGENTS CORPORATION) was added thereto to further react at 37° C. for 2 minutes, and 50 μL of 25 mM calcium chloride was then added. The time period by which plasma was coagulated (APTT; second) was measured with a coagulometer (manufactured by SYSMEX CORPORATION). In order to evaluate the anti-blood coagulant effect of the anti-blood coagulant composition of the present invention, a calculation formula for the heparin-like activity value (U/mg) was obtained from the relationship between the heparin concentration and the APTT of heparin.
Thereafter, 50 μL of an APTT reagent (manufactured by INTERNATIONAL REAGENTS CORPORATION) was added to further react the components at 37° C. for 2 minutes.

For test [3], the system named is platelet rich plasma of a normal individual. In words: Prothrombin time (PT), anti-extrinsic blood coagulant activity, Hizikia fusiforme (Test Examples F-1, F-2). The format is biochemical, human. On the procedure:
The anti-extrinsic blood coagulant activity of the extrinsic blood coagulation preventing composition of the present invention was obtained as follows: Ten microliters of a sample of a heparin test solution adjusted by […] rich plasma of a normal individual using a coagulometer (manufactured by SYSMEX CORPORATION) to react the components at 37° C. for 1 minute. Thereafter, 100 μL of a PT reagent (manufactured by INTERNATIONAL REAGENTS CORPORATION) was added thereto, and the time period by which plasma was coagulated was measured, i.e. PT was measured. From the relationship between the concentration of this heparin test solution and the PT, the following numerical formula for a heparin-like activity value (U/mg) was obtained.
Thereafter, a sample was prepared by diluting the extrinsic blood coagulation preventing composition A of the present invention with distilled water so as to have a concentration of 0.078, 0.156, 0.313, 0.625 or 1.25 mg/mL calculated as a solid content. The PT was measured in the same manner and the resultant value was plugged into the above numerical formula to give a heparin-like activity value relative to heparin (1 U/mL) at each sample concentration.
In addition, a PT ratio was calculated at each sample concentration according to the following equation using a heparin test solution concentration of 0 mg/mL as the control. PT Ratio=PT When Adding Sample/PT of Control(Heparin Test Solution Concentration:0 mg/mL)
The PTs were determined for the extrinsic blood coagulation preventing composition A obtained in Example F-1, the extrinsic blood coagulation preventing compositions B, C, D and E obtained in Example F-2, and the extrinsic blood coagulation preventing composition F obtained in Example F-3 at a concentration of 0.2 mg/mL calculated as a solid content. Thereafter, the resultant value was plugged into the calculation formula for a heparin-like activity value (U/mg) in Test Example F-1, and the heparin-like activity value and the PT ratio of each extrinsic blood coagulation preventing composition were obtained. In addition, a sample was prepared using the supernatant fraction with 80% ethyl alcohol in Example F-2 in the same manner, and the heparin-like activity value and the PT ratio were obtained.

The test system of test [4] is platelet poor plasma (PPP) separated from human blood. In words: APTT and heparin-like activity, Hizikia fusiforme thrombus preventing compositions (Test Examples F′-1, F′-2). The format is biochemical. On the procedure:
The thrombus preventing effect of the thrombus preventing composition A of the present invention was evaluated by measuring the APTT with the coagulometer utilizing platelet poor plasma (PPP) separated from human blood.
Ten microliters of a sample of which amount was adjusted so as to have a concentration of the thrombus preventing composition A of the present invention of 0.075, 0.15, 0.3 or 0.5 mg/mL calculated as a solid content, and 40 μL of PPP were placed in a reaction cuvette to react the components at 37° C. for 1 minute. Thereafter, 50 μL of an APTT reagent (manufactured by INTERNATIONAL REAGENTS CORPORATION) was added to further react the components at 37° C. for 2 minutes, and 50 μL of 25 mM calcium chloride was then added thereto. The time period (seconds) by which plasma was coagulated was measured, and defined as APTT.
Here, as the control, APTT was measured using heparin adjusted to have a concentration of 0.05, 0.1, 0.2 and 0.3 U/mL as a sample in the same manner. The following calculation formula for a heparin-like activity value (U/mg) was obtained from this relationship between the concentration of this heparin and APTT of heparin, and the resultant value was plugged into this calculation formula to give a heparin-like activity value relative to heparin (1 U/mL) at each sample concentration.
The APTTs were measured for the thrombus preventing composition A obtained in Example F′-1, the thrombus preventing compositions B, D and E obtained in Example F′-2, and the thrombus preventing composition F obtained in Example F′-3 at a concentration of 0.2 mg/mL calculated as a solid content in the same manner as in Test Example F′-1. Thereafter, the resultant value was plugged into the calculation formula for the heparin-like activity value (U/mg) in Test Example F′-1 to give a heparin-like activity value of each thrombus preventing composition. In addition, a sample was prepared in the same manner for the supernatant fraction with 80% ethanol in Example F′-2, and its heparin-like activity value was obtained.

The test system is the same in test [5]. Kind of test: APTT and heparin-like activity, enzymatically treated Hizikia fusiforme compositions (Test Examples F″-1, F″-2). The format is biochemical. On the procedure:
The thrombus preventing effect of the composition A for preventing thrombus of the present invention was evaluated by measuring the APTT with a coagulometer (manufactured by SYSMEX CORPORATION) utilizing platelet poor plasma (PPP) separated from human blood.
Ten microliters of a sample of which amount was adjusted so as to have a concentration of 0.075, 0.15, 0.3 or 0.5 mg/mL calculated as a solid content, and 40 μl of PPP were placed in a reaction cuvette to react the components at 37° C. for 1 minute. Thereafter, 50 μL of an APTT reagent (manufactured by INTERNATIONAL REAGENTS CORPORATION) was added thereto to further react the components at 37° C. for 2 minutes, and 50 μL of 25 mM calcium chloride was then added thereto. The time period (second) by which plasma was coagulated was measured, and defined as APTT.
Here, as the control, the APTT was measured in the same manner using heparin adjusted to a concentration of 0.05, 0.1, 0.2 or 0.3 U/mL as a sample. The following calculation formula for a heparin-like activity value (U/mg) was obtained from the relationship between the concentration of heparin and the APTT of heparin. The resultant value was plugged into the calculation formula to give a heparin-like activity value relative to heparin (1 U/mL) at each sample concentration.
The APTTs were measured for the composition A for preventing thrombus obtained in Example F″-1, the compositions B and C for preventing thrombus obtained in Example F″-2, and the comparative composition obtained in Comparative Example F″-1 in the same manner as in Test Example F″-1 at a concentration of 0.2 mg/mL calculated as a solid content. Thereafter, the resultant value was plugged into the calculation formula for a heparin-like activity value (U/mg) in Test Example F″-1, to give a heparin-like activity value of each composition for preventing thrombus.

Setting [6] is: heparin concentration 0.05 U/mL.

Regarding λ-carrageenan, the APTT in test [1] (concentration 0.5 mg/mL) was 398 s; in test [1] (concentration 2.5 mg/mL), 600 or more sec; in test [1] (concentration 5.0 mg/mL) it was 600 or more sec. For the same substance, the “Anti-Coagulant Activity” value in test [1] (concentration 0.5 mg/mL) was 784%; in test [1] (concentration 2.5 mg/mL), 1200 or more %; in test [1] (concentration 5.0 mg/mL), 1200 or more %.
Take heparin: the APTT in test [2] (setting [6]) came to 39.6 s; in test [2] (heparin concentration 0.1 U/mL), 50.9 s; in test [2] (heparin concentration 0.2 U/mL) it was 86.4 s; in test [2] (heparin concentration 0.4 U/mL) it was 180.2 s; in test [4] (setting [6]), 39.6 s; in test [4] (heparin concentration 0.1 U/mL), 50.9 s. Also, the APTT in test [4] (heparin concentration 0.2 U/mL) is 86.4 s; in test [4] (heparin concentration 0.3 U/mL) it was 180.2 s; in test [5] (setting [6]) it was 39.6 s; in test [5] (heparin concentration 0.1 U/mL), 50.9 s; in test [5] (heparin concentration 0.2 U/mL), 86.4 s; in test [5] (heparin concentration 0.3 U/mL), 180.2 s. Further, the PT is 11.6 s in test [3] (heparin concentration 0.0625 U/mL); 11.8 s in test [3] (heparin concentration 0.125 U/mL); 12.3 s in test [3] (heparin concentration 0.25 U/mL); 13.2 s in test [3] (heparin concentration 0.5 U/mL); 18.1 s in test [3] (heparin concentration 1 U/mL).
As to ι-carrageenan, the APTT in test [1] (concentration 0.5 mg/mL) was 162 s; in test [1] (concentration 2.5 mg/mL), 600 or more sec; in test [1] (concentration 5.0 mg/mL), 600 or more sec. For the same substance, the “Anti-Coagulant Activity” value in test [1] (concentration 0.5 mg/mL) is reported as 260%; in test [1] (concentration 2.5 mg/mL) it was 1200 or more %; in test [1] (concentration 5.0 mg/mL), 1200 or more %.
With κ-carrageenan, the APTT is 99 s in test [1] (concentration 0.5 mg/mL), 491 s in test [1] (concentration 2.5 mg/mL) and 600 or more sec in test [1] (concentration 5.0 mg/mL). Moreover, the “Anti-Coagulant Activity” value in test [1] (concentration 0.5 mg/mL) is reported as 120%; in test [1] (concentration 2.5 mg/mL), 991%; in test [1] (concentration 5.0 mg/mL), 1200 or more %.
